{"source": "patent US20220281848A1", "about": "“PYRAZOLE-SUBSTITUTED PYRROLIDINONES AS HERBICIDES” (FMC Corporation, priority 2019, published 2022)", "test_system": "plants", "assay": "Test D pre-emergence, other plants of Tables D1 and D3", "assay_type": "in vivo", "details": "pre-emergence, 100=total damage, 0=no damage", "experimental": "A formulation containing 50 g/L of the test chemical was prepared by dissolving the active ingredient in a mixture of organic solvents and emulsifier, details of which are provided in the table. This formulation was then mixed with a small, variable amount of acetone to aid dissolution, before addition of a 0.2% v/v aqueous solution of an adjuvant, as the aqueous diluent, to form an aqueous spray solution which contains a predetermined concentration of the active ingredient.\nThis aqueous spray solution was then sprayed onto plants including maize and wheat that had been seed treated with a herbicide safener, after one day's cultivation (for pre-emergence) or after about 12 days' cultivation (for post-emergence). The plants were grown from seeds sown in standard soil, placed in a glasshouse under controlled conditions (at 24/18° C. or 20/16° C., day/night; 16 h light; 65% humidity). After spray application the plants were then grown in a glasshouse under the same conditions and watered twice daily. After 15 d for post-emergence and 20 DAA for pre-emergence the test was evaluated (100=total damage to plant; 0=no damage to plant)."}
{"smiles": "COc1c(F)cccc1NC(=O)C1C(=O)N(C)CC1c1cc(C(F)(F)F)n(C)n1", "note": "(racemic) [Compound 18]", "values": [{"measurement": "damage to plant, ALOMY", "setting": "rate 15, 20 DAA", "result": 0}, {"measurement": "damage to plant, AVEFA", "setting": "rate 15, 20 DAA", "result": 0}, {"measurement": "damage to plant, BEAVA", "setting": "rate 15, 20 DAA", "result": 0}, {"measurement": "damage to plant, BROTE", "setting": "rate 15, 20 DAA", "result": 0}, {"measurement": "damage to plant, BRSNN", "setting": "rate 15, 20 DAA", "result": 0}, {"measurement": "damage to plant, CHEAL", "setting": "rate 15, 20 DAA", "result": 0}, {"measurement": "damage to plant, GALAP", "setting": "rate 15, 20 DAA", "result": 0}, {"measurement": "damage to plant, HORVW", "setting": "rate 15, 20 DAA", "result": 0}, {"measurement": "damage to plant, KCHSC", "setting": "rate 15, 20 DAA", "result": 0}, {"measurement": "damage to plant, LOLPE", "setting": "rate 15, 20 DAA", "result": 0}, {"measurement": "damage to plant, POAAN", "setting": "rate 15, 20 DAA", "result": 0}, {"measurement": "damage to plant, POLCO", "setting": "rate 15, 20 DAA", "result": 0}, {"measurement": "damage to plant, SINAR", "setting": "rate 15, 20 DAA", "result": 0}, {"measurement": "damage to plant, STEME", "setting": "rate 15, 20 DAA", "result": 0}, {"measurement": "damage to plant, VERPE", "setting": "rate 15, 20 DAA", "result": 0}, {"measurement": "damage to plant, ALOMY", "setting": "rate 30, 20 DAA", "result": 0}, {"measurement": "damage to plant, AVEFA", "setting": "rate 30, 20 DAA", "result": 0}, {"measurement": "damage to plant, BEAVA", "setting": "rate 30, 20 DAA", "result": 0}, {"measurement": "damage to plant, BROTE", "setting": "rate 30, 20 DAA", "result": 0}, {"measurement": "damage to plant, BRSNN", "setting": "rate 30, 20 DAA", "result": 0}, {"measurement": "damage to plant, CHEAL", "setting": "rate 30, 20 DAA", "result": 0}, {"measurement": "damage to plant, GALAP", "setting": "rate 30, 20 DAA", "result": 0}, {"measurement": "damage to plant, HORVW", "setting": "rate 30, 20 DAA", "result": 0}, {"measurement": "damage to plant, KCHSC", "setting": "rate 30, 20 DAA", "result": 0}, {"measurement": "damage to plant, LOLPE", "setting": "rate 30, 20 DAA", "result": 0}, {"measurement": "damage to plant, POAAN", "setting": "rate 30, 20 DAA", "result": 0}, {"measurement": "damage to plant, POLCO", "setting": "rate 30, 20 DAA", "result": 0}, {"measurement": "damage to plant, SINAR", "setting": "rate 30, 20 DAA", "result": 0}, {"measurement": "damage to plant, STEME", "setting": "rate 30, 20 DAA", "result": 0}, {"measurement": "damage to plant, VERPE", "setting": "rate 30, 20 DAA", "result": 0}, {"measurement": "damage to plant, ALOMY", "setting": "rate 60, 20 DAA", "result": 0}, {"measurement": "damage to plant, AVEFA", "setting": "rate 60, 20 DAA", "result": 0}, {"measurement": "damage to plant, BEAVA", "setting": "rate 60, 20 DAA", "result": 0}, {"measurement": "damage to plant, BROTE", "setting": "rate 60, 20 DAA", "result": 0}, {"measurement": "damage to plant, BRSNN", "setting": "rate 60, 20 DAA", "result": 0}, {"measurement": "damage to plant, CHEAL", "setting": "rate 60, 20 DAA", "result": 0}, {"measurement": "damage to plant, GALAP", "setting": "rate 60, 20 DAA", "result": 0}, {"measurement": "damage to plant, HORVW", "setting": "rate 60, 20 DAA", "result": 0}, {"measurement": "damage to plant, KCHSC", "setting": "rate 60, 20 DAA", "result": 0}, {"measurement": "damage to plant, LOLPE", "setting": "rate 60, 20 DAA", "result": 10}, {"measurement": "damage to plant, POAAN", "setting": "rate 60, 20 DAA", "result": 40}, {"measurement": "damage to plant, POLCO", "setting": "rate 60, 20 DAA", "result": 0}, {"measurement": "damage to plant, SINAR", "setting": "rate 60, 20 DAA", "result": 0}, {"measurement": "damage to plant, STEME", "setting": "rate 60, 20 DAA", "result": 0}, {"measurement": "damage to plant, VERPE", "setting": "rate 60, 20 DAA", "result": 10}, {"measurement": "damage to plant, ALOMY", "setting": "rate 130, 20 DAA", "result": 0}, {"measurement": "damage to plant, AVEFA", "setting": "rate 130, 20 DAA", "result": 0}, {"measurement": "damage to plant, BEAVA", "setting": "rate 130, 20 DAA", "result": 0}, {"measurement": "damage to plant, BROTE", "setting": "rate 130, 20 DAA", "result": 10}, {"measurement": "damage to plant, BRSNN", "setting": "rate 130, 20 DAA", "result": 0}, {"measurement": "damage to plant, CHEAL", "setting": "rate 130, 20 DAA", "result": 20}, {"measurement": "damage to plant, GALAP", "setting": "rate 130, 20 DAA", "result": 10}, {"measurement": "damage to plant, HORVW", "setting": "rate 130, 20 DAA", "result": 0}, {"measurement": "damage to plant, KCHSC", "setting": "rate 130, 20 DAA", "result": 0}, {"measurement": "damage to plant, LOLPE", "setting": "rate 130, 20 DAA", "result": 20}, {"measurement": "damage to plant, POAAN", "setting": "rate 130, 20 DAA", "result": 60}, {"measurement": "damage to plant, POLCO", "setting": "rate 130, 20 DAA", "result": 0}, {"measurement": "damage to plant, SINAR", "setting": "rate 130, 20 DAA", "result": 0}, {"measurement": "damage to plant, STEME", "setting": "rate 130, 20 DAA", "result": 10}, {"measurement": "damage to plant, VERPE", "setting": "rate 130, 20 DAA", "result": 20}, {"measurement": "damage to plant, ALOMY", "setting": "rate 250, 20 DAA", "result": 30}, {"measurement": "damage to plant, AVEFA", "setting": "rate 250, 20 DAA", "result": 30}, {"measurement": "damage to plant, BEAVA", "setting": "rate 250, 20 DAA", "result": 0}, {"measurement": "damage to plant, BROTE", "setting": "rate 250, 20 DAA", "result": 30}, {"measurement": "damage to plant, BRSNN", "setting": "rate 250, 20 DAA", "result": 10}, {"measurement": "damage to plant, CHEAL", "setting": "rate 250, 20 DAA", "result": 20}, {"measurement": "damage to plant, GALAP", "setting": "rate 250, 20 DAA", "result": 30}, {"measurement": "damage to plant, HORVW", "setting": "rate 250, 20 DAA", "result": 0}, {"measurement": "damage to plant, KCHSC", "setting": "rate 250, 20 DAA", "result": 0}, {"measurement": "damage to plant, LOLPE", "setting": "rate 250, 20 DAA", "result": 50}, {"measurement": "damage to plant, POAAN", "setting": "rate 250, 20 DAA", "result": 70}, {"measurement": "damage to plant, POLCO", "setting": "rate 250, 20 DAA", "result": 0}, {"measurement": "damage to plant, SINAR", "setting": "rate 250, 20 DAA", "result": 0}, {"measurement": "damage to plant, STEME", "setting": "rate 250, 20 DAA", "result": 20}, {"measurement": "damage to plant, VERPE", "setting": "rate 250, 20 DAA", "result": 60}, {"measurement": "damage to plant, ALOMY", "setting": "rate 500, 20 DAA", "result": 60}, {"measurement": "damage to plant, AVEFA", "setting": "rate 500, 20 DAA", "result": 40}, {"measurement": "damage to plant, BEAVA", "setting": "rate 500, 20 DAA", "result": 0}, {"measurement": "damage to plant, BROTE", "setting": "rate 500, 20 DAA", "result": 40}, {"measurement": "damage to plant, BRSNN", "setting": "rate 500, 20 DAA", "result": 20}, {"measurement": "damage to plant, CHEAL", "setting": "rate 500, 20 DAA", "result": 30}, {"measurement": "damage to plant, GALAP", "setting": "rate 500, 20 DAA", "result": 20}, {"measurement": "damage to plant, HORVW", "setting": "rate 500, 20 DAA", "result": 40}, {"measurement": "damage to plant, KCHSC", "setting": "rate 500, 20 DAA", "result": 0}, {"measurement": "damage to plant, LOLPE", "setting": "rate 500, 20 DAA", "result": 70}, {"measurement": "damage to plant, POAAN", "setting": "rate 500, 20 DAA", "result": 90}, {"measurement": "damage to plant, POLCO", "setting": "rate 500, 20 DAA", "result": 0}, {"measurement": "damage to plant, SINAR", "setting": "rate 500, 20 DAA", "result": 10}, {"measurement": "damage to plant, STEME", "setting": "rate 500, 20 DAA", "result": 10}, {"measurement": "damage to plant, VERPE", "setting": "rate 500, 20 DAA", "result": 50}]}
